biological target: SIRT6 enzyme (Homo sapiens, UniProt Q8N6T7); experiment: Measurement of deacetylation activity (SIRT6, AlphaLISA, H3K9(Ac) peptide); assay type: biochemical; details: SIRT6 25 ng/mL, H3K9(Ac) biotin peptide 2 nM, NAD 10 μM, room temperature 30 minutes, duplicate
Outline: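 Activation read as EC150, the concentration giving 150% activity relative to enzyme/no-enzyme DMSO controls, via variable-slope fit. Deacetylation of 2 nM biotinylated H3K9(Ac) peptide with 10 μM NAD+ by 25 ng/mL SIRT6 ran 30 min at room temperature, pH 8.0, then AlphaLISA detection of unmodified H3K9.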

Chain of SIRT6 enzyme (Q8N6T7 whole entry, species assumed): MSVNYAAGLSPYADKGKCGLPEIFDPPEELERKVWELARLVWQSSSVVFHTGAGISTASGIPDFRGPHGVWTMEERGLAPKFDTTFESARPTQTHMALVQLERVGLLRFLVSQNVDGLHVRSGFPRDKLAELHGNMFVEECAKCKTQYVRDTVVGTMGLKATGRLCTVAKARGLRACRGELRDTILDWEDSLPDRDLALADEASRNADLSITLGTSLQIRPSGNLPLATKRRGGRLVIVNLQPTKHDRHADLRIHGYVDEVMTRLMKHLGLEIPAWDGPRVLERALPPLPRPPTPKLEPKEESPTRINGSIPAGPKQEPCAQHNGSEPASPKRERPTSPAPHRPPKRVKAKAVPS

Structure (SMILES)	EC150 (the concentration of the compound showing a relative enzyme activity of 150%) [μm]
CNC(=O)Nc1nc2c(s1)C1CN(C(=O)OC)CC(C2)N1c1nc(C23CC(C(F)F)(C2)C3)no1 (centres unmarked) [Example 135, Methyl 10-{3-[3-(difluoromethyl)bicyclo[1.1.1]pentan-1-yl]-1,2,4-oxadiazol-5-yl}-2-[(methylcarbamoyl)amino]-4,7,8,9-tetrahydro-4,8-epimino[1,3]thiazolo[5,4-d]azocine-6(5H)-carboxylate]	2.1
C[C@H]1NC(=O)N(c2nc3c(s2)[C@@H]2COC[C@H](C3)N2c2nc(-c3ccc(F)cc3)no2)C1=O [Example 20, (5R)-3-{(4S,8S)-10-[3-(4-fluorophenyl)-1,2,4-oxadiazol-5-yl]-4,7,8,9-tetrahydro-5H-4,8-epiminooxocino[5,4-d][1,3]thiazol-2-yl}-5-methylimidazolidine-2,4-dione]	2.6
CC(C)(O)CNC(=O)Nc1nc2c(s1)[C@@H]1COC[C@H](C2)N1c1nc2cc(F)c(F)cc2o1 [Example 146, N-[(4S,8S)-10-(5,6-difluoro-1,3-benzoxazol-2-yl)-4,7,8,9-tetrahydro-5H-4,8-epiminooxocino[5,4-d][1,3]thiazol-2-yl]-N′-(2-hydroxy-2-methylpropyl)urea]	1.9
CC(=O)N1CC2Cc3nc(NC(=O)NC(C)C)sc3C(C1)N2c1nc(-c2ccc(F)cc2)no1 (centres unmarked) [Example 137, N-{6-acetyl-10-[3-(4-fluorophenyl)-1,2,4-oxadiazol-5-yl]-4,5,6,7,8,9-hexahydro-4,8-epimino[1,3]thiazolo[5,4-d]azocin-2-yl}-N′-propan-2-ylurea]	0.36
CNC(=O)Nc1nc2c(s1)C1CN(C(=O)OC)CC(C2)N1c1nnc(-c2cccc(C(=O)C3CC3)c2)o1 (centres unmarked) [Example 123, Methyl 10-{5-[3-(cyclopropanecarbonyl)phenyl]-1,3,4-oxadiazol-2-yl}-2-[(methylcarbamoyl)amino]-4,7,8,9-tetrahydro-4,8-epimino[1,3]thiazolo[5,4-d]azocine-6(5H)-carboxylate]	0.66

Reference: US11981686B2, “Urea compound having substituent” (DAIICHI SANKYO COMPANY, LIMITED, priority 2019, dated 2024)
